In patent US12023320B2, “Therapeutic agent for fatty liver disease” (EA PHARMA CO., LTD., priority 2020, dated 2024):

System: high-fat and high-fructose-induced NASH model (FFD model)
Assay: high-fat and high-fructose-induced NASH model (fast-food diet model: FFD model), 18 weeks gavage
Type: in vivo, C57BL/6J Jms Slc male mice
Conditions: for histopathological findings: Fat formation: large fat droplets, number of mice graded ± (Slight) / histopathological findings: Fat formation: large fat droplets, number of mice graded + (Moderate): 8 mice evaluated; for histopathological findings: Fat formation: large fat droplets, number of mice graded ± (Slight) / histopathological findings: Fibrosis, number of mice graded ± (Slight): Vehicle 3; for histopathological findings: Fat formation: large fat droplets, number of mice graded + (Moderate) / histopathological findings: Fibrosis, number of mice graded + (Moderate): Vehicle 5; for histopathological findings: Fibrosis, number of mice graded ± (Slight) / histopathological findings: Fibrosis, number of mice graded + (Moderate): individuals with liver nodules excluded; for number of CD68-positive hCLS in the liver (inhibitory effect on the increase vs Vehicle group): after 18 weeks of administration (FIG. 5); for liver TG (inhibitory effect on the increase vs Vehicle group): after 18 weeks of administration (FIG. 3)
Experimental: In the present Examples, using a high-fat and high-fructose-induced NASH model (fast-food diet model: FFD model), the effect of a test drug was evaluated. For the FFD model, refer to BMC Gastroenterol. 2020; 20: 210 and Am J Physiol Gastrointest Liver Physiol. 2013 Oct. 1; 305(7): G483-95. The test drug was prepared by adding hydrochloride of the compound represented by the formula (1) (hereinafter referred to as “compound 1”) to 0.5% MC and sonicating the mixture. 6-week-old C57BL/6J Jms Slc male mice were fed with standard diet (D09100304, Research Diets, Inc.) or FFD diet for pathogenesis (D09100310N, Research Diets, Inc.) for 20 weeks. Then, the mice were grouped as shown in Table 1 based on three indices, i.e., plasma alanine aminotransferase (ALT) levels, body weight, and fasting blood glucose levels. According to the dosage and usage shown in Table 1, the administration substance was gavaged to each group for 18 weeks. [table] ALT was measured by collecting blood from the tail vein after 12 weeks of administration. An autopsy was performed after 18 weeks of administration, and plasma aspartate aminotransferase (AST), plasma total cholesterol (Tcho), and liver triglyceride (TG) were measured. In addition, the Sirius red-positive area and the number of hepatic crown-like structures (hCLS) were measured by liver pathological analysis. Statistical analysis was performed using GraphPad Prism 6 (GraphPad Software, Inc.). For the Normal group and the Vehicle group, t-test or Mann-Whitney's test was performed. For the Vehicle group and the compound 1 group, Dunnett' multiple comparison test or Dunn's multiple comparison test was performed. Any of the test methods was appropriately selected according to the distribution of each parameter. The significance level of all the tests was set to p=0.05. A liver sample was homogenized in a phosphate buffer and extracted with methanol and chloroform overnight. Then, chloroform and distilled water were further added thereto. The mixture was separated by centrifugation, the chloroform layer was collected, and the solvent was dried. The precipitate was dissolved in isopropanol/TritonX-100, and this was used as a measurement sample, the measurement was carried out using Triglyceride E-Test Wako (FUJIFILM Wako Pure Chemical Corporation). The excised liver was fixed in a 10% neutral buffered formalin solution, and embedded in paraffin and Sirius red-stained specimens were prepared according to standard methods. The Sirius red-stained specimen was used to calculate the positive area. The positive area of the Normal group was averaged and used as the background. A CD68 immunostaining specimen (rabbit anti-CD68 polyclonal antibody [ab125212], Abcam) was prepared, and the number of hCLS was counted.

[1] = compound 1 (60) group, 60 mg/kg/day BID

With CC(C)(Cc1ccc(C(=O)Oc2ccc(C(=N)N)cc2F)s1)C(=O)O [compound 1] as the compound, how does the “histopathological findings: Fat formation: large fat droplets, number of mice graded ± (Slight)” value (10 mg/kg QD) read?
Its value is 4.

What about the “histopathological findings: Fat formation: large fat droplets, number of mice graded + (Moderate)” value (10 mg/kg QD) of the same compound?
Its value is 4.

What about the “histopathological findings: Fibrosis, number of mice graded ± (Slight)” value (“histopathological findings: Fibrosis … (Slight)” for short) (10 mg/kg QD) of the same compound?
The value was 6.

What about the “histopathological findings: Fibrosis, number of mice graded + (Moderate)” value (10 mg/kg QD) of the same compound?
Its value is 2.

And the “histopathological findings: Fat formation: large fat droplets, number of mice graded ± (Slight)” value (30 mg/kg QD)?
The value was 2.

And the “histopathological findings: Fat formation: large fat droplets, number of mice graded + (Moderate)” value (30 mg/kg QD)?
The value was 6.

And the “histopathological findings: Fibrosis … (Slight)” value (30 mg/kg QD)?
Its value is 6.

And the “histopathological findings: Fibrosis, number of mice graded + (Moderate)” value (30 mg/kg QD)?
Its value is 1.

What about the “histopathological findings: Fat formation: large fat droplets, number of mice graded ± (Slight)” value (60 mg/kg/day BID) of the same compound?
The value was 7.

And the “histopathological findings: Fat formation: large fat droplets, number of mice graded + (Moderate)” value (60 mg/kg/day BID)?
The value was 1.

What about the “histopathological findings: Fibrosis … (Slight)” value (60 mg/kg/day BID) of the same compound?
Its value is 6.

And the “histopathological findings: Fibrosis, number of mice graded + (Moderate)” value (60 mg/kg/day BID)?
Its value is 2.

And the “number of CD68-positive hCLS in the liver (inhibitory effect on the increase vs Vehicle group)” value (compound 1 (10) group, 10 mg/kg QD)?
The value was “statistically significant inhibitory effect”.

And the “liver TG (inhibitory effect on the increase vs Vehicle group)” value (compound 1 (30) group, 30 mg/kg QD)?
The value was “statistically significant inhibitory effect”.

What about the “plasma ALT (inhibitory effect on the increase vs Vehicle group)” value (compound 1 (60) group, 60 mg/kg/day BID, after 12 weeks and 18 weeks of administration (FIG. 1A, 1B)) of the same compound?
Its value is “statistically significant inhibitory effect”.

What about the “plasma AST (inhibitory effect on the increase vs Vehicle group)” value (compound 1 (60) group, 60 mg/kg/day BID, after 18 weeks of administration (FIG. 1C)) of the same compound?
The value was “statistically significant inhibitory effect”.

What about the “plasma Tcho (inhibitory effect on the increase vs Vehicle group)” value (compound 1 (60) group, 60 mg/kg/day BID, after 18 weeks of administration (FIG. 2)) of the same compound?
Its value is “statistically significant inhibitory effect”.

What about the “liver TG (inhibitory effect on the increase vs Vehicle group)” value [1] of the same compound?
The value was “statistically significant inhibitory effect”.

And the “Sirius red-positive area in the liver (inhibitory effect on the increase vs Vehicle group)” value (compound 1 (60) group, 60 mg/kg/day BID, after 18 weeks of administration (FIG. 4))?
The value was “statistically significant inhibitory effect”.

What about the “number of CD68-positive hCLS in the liver (inhibitory effect on the increase vs Vehicle group)” value [1] of the same compound?
The value was “statistically significant inhibitory effect”.
